How the values were obtained:
[1] = In vitro release of gentamicin (dialysis membrane setup); details: 37° C., PBS pH 7.4, 10.000 MWCO cellulose membrane
[2] = cited from earlier work

For gentamicin, the “time at which gentamicin became detectable in the bulk release medium” value [1] is listed as at most 1 min, the “time to complete release / permeation of gentamicin” value [1] is listed as 1.5 h and the pKa [2] is listed as 8.2.

Source: patent US10383950B2, “Methods and compositions of carrier systems for the purpose of intracellular drug targeting” (HELMHOLTZ-ZENTRUM FÜR INFEKTIONSFORSCHUNG GMBH, priority 2014, dated 2019)
